Series [1] relates to HaCaT human skin keratinocyte cell line. In words: HaCaT antiproliferative assay measuring 3H-thymidine uptake. The class given is cell-based. The conditions noted are these: for HaCaT rel.: relative to 1,25(OH)2D3, ratio IC50 of 1,25(OH)2D3 / IC50 of compound, 3H-thymidine incorporation, >1 = more active. An excerpt:
An assay for the rating of test compounds for antiproliterative activity in skin cells, e.g. antipsoriatic effect, is the in vitro assay using HaCaT, a spontaneously immortalised, non-tumorigenic human skin keratinocyte cell line (Mørk Hansen, C. et al., J. Invest. Dermatol 1, 44-48 (1996)), measuring ^3H -thymidine uptake.

A further series relates to rats. The series is described as follows: Calcemic activity in rats in vivo. Also noted: species or system rat. The settings on record: for Calc. rel.: calcemic activity in rats relative to 1,25(OH)2D3, >1 = more active. The text has this:
Generally, the classical effects of 1,25(OH)2D3 on the calcium balance in the organism, including calcemic and calciuric activities, are unwanted in the vitamin D analogues of the present invention, in which selectivity for e.g. inhibition of the proliferation of certain cells, absence of calcemic effects and skin irritation is desired.

The test system of another series is hairless guinea pigs. In words: Skin irritation, occlusive patch test in hairless guinea pigs. The class given is in vivo, guinea pig. Details: key to Skin irritation score: 0: Substances of no irritation; +: Substances of doubtful or very low irritancy compared to calcitriol; ++: Substances of low irritancy compared to calcitriol; +++: Substances with irritances in the same range as calcitriol; ++++: Substances of more irritancy than calcitriol; +++++: Very irritative substances compared to calcftriol. The settings on record: for Skin irritation score: occlusive patch 48 hours, 500, 50 and 5 μg/ml, clinical grading, LDPI, erythema. The procedure: Skin irritation was assessed in hairless guinea pigs. Randomised occlusive patch testing for 48 hours was used. Each analogue was tested at three dose levels (500 μg/ml, 50 μg/ml, and 5 μg/ml) and a placebo solution was also included. Assessment of skin irritation was blinded and based upon clinical grading and objective measurement of cutaneous blood flow (laser Doppler perfusion imaging, LDPI) and erythema (Minolta ChromaMeter). Furthermore, epidermal thickness as an indication of epidermal hyperplasia was measured.
The irritancy scores were as defined below:
0 Substances of no irritation
+ Substances of doubtful or very low irritancy compared to calcitriol
++ Substances of low irritancy compared to calcitriol
+++ Substances with irritances in the same range as calcitriol
++++ Substances of more irritancy than calcitriol
+++++ Very irritative substances compared to calcftriol

The next series addresses T1, vitamin D receptor (Homo sapiens, UniProt P11473).
T1 sequence (P11473 1-427): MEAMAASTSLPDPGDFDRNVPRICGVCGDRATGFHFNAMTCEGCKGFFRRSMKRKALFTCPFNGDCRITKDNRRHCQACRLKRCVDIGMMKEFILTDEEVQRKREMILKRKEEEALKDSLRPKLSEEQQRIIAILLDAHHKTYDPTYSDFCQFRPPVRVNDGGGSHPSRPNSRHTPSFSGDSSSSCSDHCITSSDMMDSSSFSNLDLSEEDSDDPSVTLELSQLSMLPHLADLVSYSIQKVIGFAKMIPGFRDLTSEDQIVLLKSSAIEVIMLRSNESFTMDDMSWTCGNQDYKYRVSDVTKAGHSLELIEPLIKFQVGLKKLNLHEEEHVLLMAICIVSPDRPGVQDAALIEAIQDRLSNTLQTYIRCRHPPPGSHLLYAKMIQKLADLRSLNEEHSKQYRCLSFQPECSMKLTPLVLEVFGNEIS
In words: Binding to the vitamin D receptor in vitro, relative to Calcitriol. The settings on record: relative to 1,25(OH)2D3; ratio IC50 of 1,25(OH)2D3 / IC50 of compound; >1 = more active.

“Also recorded” adds a separate entry of the source.

`C=C1/C(=C\C=C2/CCC[C@]3(C)[C@@H]([C@H](C)/C=C/[C@@H](O)C4CC4)CC[C@@H]23)C[C@@H](O)C[C@@H]1O` [Calcipotriol, reference compound]: the HaCaT rel. in series [1] is 2. In addition, the Calc. rel. in the series on rats is 0.005. In the series on hairless guinea pigs, the Skin irritation score entry is on record as “+++”.

Consider `C=C1/C(=C\C=C2/CCC[C@]3(C)[C@@H]([C@H](C)CCCC(C)(C)O)CC[C@@H]23)C[C@@H](O)C[C@@H]1O` [Calcitriol, 1α,25-dihydroxy-vitamin D3, reference compound], for which the HaCaT rel. in series [1] was found to be 1. In addition, the Calc. rel. in the series on rats is 1. For the same compound, in the series on hairless guinea pigs, the Skin irritation score result is listed as “+++”.

Regarding `C=C1C(=CC=C2CCCC3(C)C2CCC3C(C)COCc2cccc(C(C)(C)O)c2)CC(O)CC1O` [Compound 100, 1(S),3(R)-Dihydroxy-20(R)-[((3-(2-hydroxy-2-propyl)-phenyl)-methoxy)-methyl]-9,10-seco-pregna-5(Z),7(E),10(19)-triene], in series [1] (HaCaT, compared with Calcitriol / 1,25(OH)2D3), the “antiproliferative activity in skin cells (in words)” value is recorded as “same potency as the compound Calcitriol”. Also, in series [1], the HaCaT rel. is given as 1. Also, the Calc. rel. with rats is on record as 0.001. Moreover, the “calcemic activity (in words)” value with rats (rats in vivo, compared with prior art compounds) is “very low calcemic activity; also recorded: negligible”. On vitamin D receptor, the Receptor binding rel. is 0.01. Also, the “skin irritation (in words)” value in the series with hairless guinea pigs (compared with prior art compounds) is on record as “considerably less skin irritation than compounds of the prior art”. In addition, the Skin irritation score entry with hairless guinea pigs is reported as “+”.
